Reference: patent US10980889B1 (Revolution Medicines, Inc., priority 2018, dated 2021)
Read-outs that look alike come from different tables or passages of the source.

What was measured:
Conditions in all cases: Homo sapiens, 4 h, two to four hours at 37° C.
P-4E-BP1 (T37/46) = test: Cell based AlphaLISA assay, inhibition of P-4E-BP1 (T37/46) in MDA-MB-468 cells (mTORC1 substrate)
In short: (§1)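 In MDA-MB-468 cells, phosphorylation of 4EBP1 (Thr37/46), P70S6K (Thr389) and AKT (Ser473) was measured after incubation with inhibitor by AlphaLISA SureFire Ultra on cell lysates, in duplicate. IC50 values came from control-normalized concentration-response regression.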

P-Akt (S473) = test: Cell based AlphaLISA assay, inhibition of P-Akt (S473) in MDA-MB-468 cells (mTORC2 substrate)
In short: as §1

P-P70S6K (T389) = test: Cell based AlphaLISA assay, inhibition of P-P70S6K (T389) in MDA-MB-468 cells (mTORC1 substrate)
In short: as §1

[1] = AlphaLisa, read-out: pIC50 for Inhibition of mTORC1 and mTORC2 Substrate Phosphorylation P-4E-BP1-(T37/46) (converted)
[2] = AlphaLisa, read-out: pIC50 for Inhibition of mTORC1 and mTORC2 Substrate Phosphorylation p-AKT1/2/3-(S473) (converted)
[3] = AlphaLisa, read-out: pIC50 for Inhibition of mTORC1 and mTORC2 Substrate Phosphorylation p-P70S6K-(T389) (converted)
[4] = AlphaLisa SureFire Ultra, read-out: IC50 for Inhibition of mTORC1 and mTORC2 Substrate Phosphorylation (nM) p-4E-BP1-(T37/46)
[5] = AlphaLisa SureFire Ultra, read-out: IC50 for Inhibition of mTORC1 and mTORC2 Substrate Phosphorylation (nM) p-AKT1/2/3-(5473)
[6] = AlphaLisa SureFire Ultra, read-out: IC50 for Inhibition of mTORC1 and mTORC2 Substrate Phosphorylation (nM) p-P7056K-(T389)

Row | IC50 (P-4E-BP1 (T37/46); [4]) | IC50 (P-Akt (S473); [5]) | IC50 (P-P70S6K (T389); [6]) | SMILES | IC50 (P-4E-BP1 (T37/46); [1]) | IC50 (P-Akt (S473); [2]) | IC50 (P-P70S6K (T389); [3])
1 | – | – | – | CO[C@H]1C[C@@H]2CC[C@@H](C)[C@@](O)(O2)C(=O)C(=O)N2CCCC[C@H]2C(=O)O[C@H]([C@H](C)C[C@@H]2CC[C@@H](OC(=O)N3CCc4nc(N5CCN(c6ncc(C(=O)N7CCN(c8ncc(C(=O)N9CCc%10cc(Cn%11nc(-c%12cnc%13[nH]ccc%13c%12)c%12c(N)ncnc%12%11)ccc%10C9)cn8)CC7)cn6)CC5)ncc4C3)[C@H](OC)C2)CC(=O)[C@H](C)/C=C(\C)[C@@H](O)[C@@H](OC)C(=O)[C@H](C)C[C@H](C)/C=C/C=C/C=C/1C [Example 142] | > 1000 nM | > 1000 nM | 1 to 10 nM
2 | – | – | – | CO[C@H]1C[C@@H]2CC[C@@H](C)[C@@](O)(O2)C(=O)C(=O)N2CCCC[C@H]2C(=O)O[C@H]([C@H](C)C[C@@H]2CC[C@@H](OC(=O)NCCOCCOCCN3CCN(CCOCCOCCOCCOCCC(=O)N4CCc5cc(Cn6nc(-c7ccc8oc(N)nc8c7)c7c(N)ncnc76)ccc5C4)CC3)[C@H](OC)C2)C[C@@H](O)[C@H](C)/C=C(\C)[C@@H](O)[C@@H](OC)C(=O)[C@H](C)C[C@H](C)/C=C/C=C/C=C/1C [Example 143] | 3.16 to 31.6 nM | > 1000 nM | < 1 nM
3 | – | – | – | CO[C@H]1C[C@@H]2CC[C@@H](C)[C@@](O)(O2)C(=O)C(=O)N2CCCC[C@H]2C(=O)O[C@H]([C@H](C)C[C@@H]2CC[C@@H](OC(=O)NCCOCCOCCN3C[C@@H]4C[C@H]3CN4CCOCCOCCOCCOCCC(=O)N3CCc4cc(Cn5nc(-c6ccc7oc(N)nc7c6)c6c(N)ncnc65)ccc4C3)[C@H](OC)C2)C[C@@H](O)[C@H](C)/C=C(\C)[C@@H](O)[C@@H](OC)C(=O)[C@H](C)C[C@H](C)/C=C/C=C/C=C/1C [Example 144] | < 3.16 nM | 3.16 to 31.6 nM | < 1 nM
4 | 16 nM | 3.7 nM | 1.4 nM | CC(C)n1nc(-c2ccc3oc(N)nc3c2)c2c(N)ncnc21 [MLN-128, reference compound] | – | – | –
5 | > 1000 nM | > 1000 nM | 0.2 nM | CO[C@H]1C[C@@H]2CC[C@@H](C)[C@@](O)(O2)C(=O)C(=O)N2CCCC[C@H]2C(=O)O[C@H]([C@H](C)C[C@@H]2CC[C@@H](O)[C@H](OC)C2)CC(=O)[C@H](C)/C=C(\C)[C@@H](O)[C@@H](OC)C(=O)[C@H](C)C[C@H](C)/C=C/C=C/C=C/1C [Rapamycin, (3S,6R,7E,9R,10R,12R,14S,15E,17E,19E,21S,23S,26R,27R,34aS)-9,10,12,13,14,21,22,23,24,25,26,27,32,33,34,34a-hexadecahydro-9,27-dihydroxy-3-[(1R)-2-[(1S,3R,4R)-4-hydroxy-3-methoxycyclohexyl]-1-methylethyl]-10,21-dimethoxy-6,8,12,14,20,26-hexamethyl-23,27-epoxy-3H-pyrido[2,1-c][1,4]-oxaazacyclohentriacontine-1,5,11,28,29(4H,6H,31H)-pentone, reference compound] | – | – | –
